Values of other authors in US20220031887A1, “Active Materials, Surfaces, Surface Treatments And Methods Using Inclusion Complex Formers For Pathogen Reduction” (priority 2020, published 2022).

For `O=C1OC2(c3ccccc31)c1cc(Br)c(O)c(Br)c1Oc1c2cc(Br)c(O)c1Br` [Eosin Y], the Epsilon (in ideal solvent) is listed as 112,000 and the “Lambda Max” value (peak absorption in visible light) is listed as 525.
